Experimental findings from patent US20240124491A1, “METHODS AND COMPOUNDS FOR TREATING FRIEDREICH'S ATAXIA” (Design Therapeutics, Inc., priority 2021, published 2024) are described below.

The subject of the assay is human FXN. Description: EC50 assay: FXN mRNA expression by qRT-PCR in GM15850 cells after 48 hrs compound treatment. The assay is classed as cell-based. As to conditions: Homo sapiens, 48 hrs incubation, hFXN expression normalized to hGAPDH (qRT-PCR), read-out: EC50 WT (nM, 48 hr). In a few lines: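 FXN transcript, normalized to GAPDH by TaqMan qRT-PCR, read out after 48 hrs of compound on GM15850 cells plated at 150,000 per well. Dosing used five 3-fold steps from 150 nM final, vehicle 0.01% DMSO.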
Background: Real-time PCR tracks product formation cycle by cycle.

For `Cc1sc2c(c1C)C(c1ccc(Cl)cc1)=N[C@@H](CC(=O)NC1CCN(CCOCCOCCOCCOCCN3CCN(CCOCCOCCNC(=O)CCNC(=O)c4nc(NC(=O)CCNC(=O)c5cc(NC(=O)c6nc(NC(=O)CCNC(=O)c7cc(NC(=O)c8nccn8C)cn7C)cn6C)cn5C)cn4C)CC3)CC1)c1nnc(C)n1-2` [Compound 108], the EC50 (usually the midpoint of the concentration-response curve) is less than 100 nM.

Turning to `Cc1sc2c(c1C)C(c1ccc(Cl)cc1)=N[C@@H](CC(=O)NC1CCN(CCOCCOCCOCCOCCOCCN3CCN(CCCCCNC(=O)CCNC(=O)c4nc(NC(=O)CCNC(=O)c5cc(NC(=O)c6nc(NC(=O)CCNC(=O)c7cc(NC(=O)c8nccn8C)cn7C)cn6C)cn5C)cn4C)CC3)CC1)c1nnc(C)n1-2` [Compound 109], the 50% effective concentration (EC50) lay in the range of 100 to 500 nM.

On to `Cc1sc2c(c1C)C(c1ccc(Cl)cc1)=N[C@@H](CC(=O)NCCOCCOCCOCCN(CCOCCOCCOCCNC(=O)C[C@@H]1N=C(c3ccc(Cl)cc3)c3c(sc(C)c3C)-n3c(C)nnc31)CCOCCOCCOCCOCCOCCNC(=O)CCNC(=O)c1nc(NC(=O)CCNC(=O)c3cc(NC(=O)c4nc(NC(=O)CCNC(=O)c5cc(NC(=O)c6nccn6C)cn5C)cn4C)cn3C)cn1C)c1nnc(C)n1-2` [Compound 111], for which the half-maximal effective concentration (EC50) was less than 100 nM.

As to `Cc1sc2c(c1C)C(c1ccc(Cl)cc1)=N[C@@H](CC(=O)NC1CCN(CCOCCOCCN(CCOCCOCCOCCOCCOCCNC(=O)CCNC(=O)c3nc(NC(=O)CCNC(=O)c4cc(NC(=O)c5nc(NC(=O)CCNC(=O)c6cc(NC(=O)c7nccn7C)cn6C)cn5C)cn4C)cn3C)CCOCCOCCN3CCC(NC(=O)C[C@@H]4N=C(c5ccc(Cl)cc5)c5c(sc(C)c5C)-n5c(C)nnc54)CC3)CC1)c1nnc(C)n1-2` [Compound 112], the half-maximal effective concentration (EC50) lay within 100 to 500 nM.

Regarding `Cc1sc2c(c1C)C(c1ccc(Cl)cc1)=N[C@@H](CC(=O)NCCCCCN(CCCCCNC(=O)C[C@@H]1N=C(c3ccc(Cl)cc3)c3c(sc(C)c3C)-n3c(C)nnc31)CCOCCOCCOCCOCCOCCNC(=O)CCNC(=O)c1nc(NC(=O)CCNC(=O)c3cc(NC(=O)c4nc(NC(=O)CCNC(=O)c5cc(NC(=O)c6nccn6C)cn5C)cn4C)cn3C)cn1C)c1nnc(C)n1-2` [Compound 113], the concentration giving a half-maximal response (EC50) is less than 100 nM.

Consider `Cc1sc2c(c1C)C(c1ccc(Cl)cc1)=N[C@@H](CC(=O)NCCCCCN(CCCCCNC(=O)C[C@@H]1N=C(c3ccc(Cl)cc3)c3c(sc(C)c3C)-n3c(C)nnc31)CCOCCOCCOCCOCCOCCOCCOCCNC(=O)CCNC(=O)c1nc(NC(=O)CCNC(=O)c3cc(NC(=O)c4nc(NC(=O)CCNC(=O)c5cc(NC(=O)c6nccn6C)cn5C)cn4C)cn3C)cn1C)c1nnc(C)n1-2` [Compound 114], for which the concentration for a half-maximal effect (EC50) was less than 100 nM.

As for `COc1nnc2ccc(N3CCC(c4ccc(OCCN5[C@H](C)CN(C(=O)COCCOCCOCCOCCOCCOCCOCCOCCNC(=O)CCNC(=O)c6nc(NC(=O)CCNC(=O)c7cc(NC(=O)c8nc(NC(=O)CCNC(=O)c9cc(NC(=O)c%10nccn%10C)cn9C)cn8C)cn7C)cn6C)C[C@@H]5C)cc4)CC3)nn12` [Compound 115], the EC50 is more than 500 nM.

On to `COc1nnc2ccc(N3CCC(c4ccc(OCCN5CCN(CCOCCOCCOCCOCCOCCOCCOCCOCCNC(=O)CCNC(=O)c6nc(NC(=O)CCNC(=O)c7cc(NC(=O)c8nc(NC(=O)CCNC(=O)c9cc(NC(=O)c%10nccn%10C)cn9C)cn8C)cn7C)cn6C)C(=O)[C@H]5C)cc4)CC3)nn12` [Compound 116], for which the EC50 was more than 500 nM.

In the case of `Cc1sc2c(c1C)C(c1ccc(Cl)cc1)=N[C@@H](CC(=O)NCCOCCOCCOCCOCCOCCOCCOCCNC(=O)c1sc3c(c1C)C(c1ccc(Cl)cc1)=N[C@@H](CC(=O)NC1CCN(CCOCCOCCOCCOCCOCCOCCOCCOCCNC(=O)CCNC(=O)c4nc(NC(=O)CCNC(=O)c5cc(NC(=O)c6nc(NC(=O)CCNC(=O)c7cc(NC(=O)c8nccn8C)cn7C)cn6C)cn5C)cn4C)CC1)c1nnc(C)n1-3)c1nnc(C)n1-2` [Compound 117], the concentration for a half-maximal effect (EC50) was less than 100 nM.

In the case of `Cc1sc2c(c1C)C(c1ccc(N)cc1)=N[C@@H](CC(=O)N1CCC(C#CC#CC3CCN(CCOCCOCCOCCOCCNC(=O)CCNC(=O)c4nc(NC(=O)CCNC(=O)c5cc(NC(=O)c6nc(NC(=O)CCNC(=O)c7cc(NC(=O)c8nccn8C)cn7C)cn6C)cn5C)cn4C)CC3)CC1)c1nnc(C)n1-2` [Compound 119], the concentration giving a half-maximal response (EC50) was less than 100 nM.
